The values that follow come from PubChem BioAssay (NCI).

Test systems include MDA-N; MDA-MB-231 breast; XF 498 CNS; MCF7 breast; HOP-18 NSCLC; SN12K1 renal; P388/ADR leukemia; P388 leukemia; DMS 273 small cell lung; LXFL 529 NSCLC; RXF-631 renal.
What all share (test): NCI tumour cell line growth inhibition, 48 h

The structures appear in SMILES notation.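 48-hour exposure; five concentrations; linearly interpolated endpoints. TGI: concentration producing complete growth inhibition.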

On to `C/C(=N\Nc1nc2cc(Cl)ccc2s1)c1ccccn1`, for which the TGI in the test with MDA-N is > 100 µM; with MDA-MB-231 breast, 7.41 µM.

Turning to `CN(C)C(=O)Oc1c(Br)cc(Br)cc1C(=O)OCc1ccccc1`, the TGI is 49.2 µM in the test on XF 498 CNS; > 70.3 µM in the test on MCF7 breast; 96.9 µM in the test on HOP-18 NSCLC; > 88.2 µM in the test on SN12K1 renal; 41.6 µM in the test with P388/ADR leukemia; 43 µM in the test on P388 leukemia. In addition, in the test with DMS 273 small cell lung, the TGI was > 73.2 µM.

On to `COC1/C=C/C=C(/C)Cc2cc(O)c(Cl)c(c2)N(C)C(=O)CC(OC(=O)C(C)C)C2(C)OC2C(C)C2CC1(O)NC(=O)O2` (stereo not given), for which the results for the TGI in the test on MCF7 breast, in the test on MDA-N and with MDA-MB-231 breast were > 100 µM, < 0.01 µM and > 42.3 µM, respectively.

Consider `CCN1c2ccccc2NC(=S)c2c1n[nH]c2-c1ccccc1`, for which the TGI in the test with MCF7 breast came to 74.9 µM; with MDA-N, 32.6 µM; in the test with MDA-MB-231 breast, 61.8 µM.

`CC(=O)C(=O)NC1/C=C(C)\C=C/C(O)C/C=C(C)\C=C/C(O)CC2OC(=O)C1(C)C(=O)C2C` (stereo not given): the TGI in the test with MCF7 breast was > 100 µM; in the test on HOP-18 NSCLC it was > 100 µM; in the test on SN12K1 renal, > 100 µM; in the test on P388/ADR leukemia it was > 66.6 µM; in the test with P388 leukemia it was > 48.2 µM; in the test on DMS 273 small cell lung, > 100 µM.

On to `CC1(C)OC[C@H](C(=N)OCc2ccccc2)O1`, for which the TGI in the test with XF 498 CNS, with LXFL 529 NSCLC and in the test with DMS 273 small cell lung was > 100 µM each time.

`O=C1CC(/C=C/c2ccco2)=C(O)C1=O`: the TGI with MCF7 breast was determined as 21.4 µM; in the test with MDA-N, 29.7 µM; in the test on MDA-MB-231 breast it was 35.2 µM.

As for `CCOC(=O)c1nc2ccc(OC)cc2c2c1Cc1ccccc1-2`, the TGI in the test with LXFL 529 NSCLC, in the test with RXF-631 renal and with DMS 273 small cell lung was > 100 µM in each case.
